Reference: ChEMBL document CHEMBL5543147, “Discovery and Characterization of a Novel Cereblon-Recruiting PRC1 Bridged PROTAC Degrader” (J Med Chem, 2024)
Active and inactive are the calls of the source. The rule behind the calls is not given here.

Key:
[1] = molecular target: T1, Protein cereblon/Polycomb complex protein BMI-1 (Homo sapiens, UniProt Q96SW2+P35226); assay: PROTAC activity at CRBN/BIM1 in human K562 cells assessed as degradation of BMI1 protein expression incubated for 24 hrs by Western blotting analysis; format: cell-based
[2] = molecular target: Protein cereblon/Polycomb protein EED (Homo sapiens, UniProt O75530+Q96SW2); assay: PROTAC activity at CRBN/EED in human K562 cells assessed as degradation of EED protein expression incubated for 24 hrs by Western blotting analysis; format: cell-based
[3] = molecular target: Protein cereblon/Polycomb protein SUZ12 (Homo sapiens) (UniProt Q15022+Q96SW2); assay: PROTAC activity at CRBN/SUZ12 in human K562 cells assessed as degradation of SUZ12 protein expression at 0.1 to 10 uM incubated for 24 hrs by Western blotting analysis; format: cell-based; conditions: dose 0.1-10 µM
[4] = molecular target: T1, Protein cereblon/Polycomb complex protein BMI-1; assay: PROTAC activity at […] in human K562 cells assessed as degradation of BMI1 protein expression at 10 uM measured after 12 hrs by Western blotting analysis relative to control; format: cell-based
Target sequence in this assay (P35226 whole entry, looked up): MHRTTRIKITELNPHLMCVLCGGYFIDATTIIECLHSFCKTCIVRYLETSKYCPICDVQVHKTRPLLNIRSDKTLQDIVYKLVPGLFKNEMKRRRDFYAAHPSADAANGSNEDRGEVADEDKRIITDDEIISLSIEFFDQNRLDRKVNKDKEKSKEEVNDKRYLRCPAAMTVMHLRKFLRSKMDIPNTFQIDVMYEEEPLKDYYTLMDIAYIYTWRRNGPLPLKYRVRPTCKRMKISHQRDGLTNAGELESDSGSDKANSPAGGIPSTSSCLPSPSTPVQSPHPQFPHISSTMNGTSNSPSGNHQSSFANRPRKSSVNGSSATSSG
Target sequence in this assay (Q96SW2 whole entry, looked up): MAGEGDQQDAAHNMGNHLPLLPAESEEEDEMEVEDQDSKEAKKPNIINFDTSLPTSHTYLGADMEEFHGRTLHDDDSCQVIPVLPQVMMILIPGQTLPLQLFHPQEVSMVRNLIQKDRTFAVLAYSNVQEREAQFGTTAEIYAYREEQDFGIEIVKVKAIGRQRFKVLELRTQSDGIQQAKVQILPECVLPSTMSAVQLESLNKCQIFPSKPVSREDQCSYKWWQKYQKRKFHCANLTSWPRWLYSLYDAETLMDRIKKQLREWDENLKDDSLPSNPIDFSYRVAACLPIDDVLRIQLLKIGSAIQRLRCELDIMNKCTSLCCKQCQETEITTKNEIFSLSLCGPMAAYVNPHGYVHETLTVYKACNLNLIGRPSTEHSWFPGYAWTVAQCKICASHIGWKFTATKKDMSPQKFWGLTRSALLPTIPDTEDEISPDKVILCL

[5] = molecular target: T2, Protein cereblon/E3 ubiquitin-protein ligase RING2 (Homo sapiens, UniProt Q96SW2+Q99496); assay: PROTAC activity at CRBN/RING1B in human K562 cells assessed as degradation of RING1B protein expression at 10 uM measured after 12 hrs by Western blotting analysis relative to control; format: cell-based
Polycomb protein EED = Polycomb protein EED (Homo sapiens, UniProt O75530); assay: Binding affinity to EED (75 to 441 residues) (unknown origin) expressed in Escherichia coli BL21 (DE3) assessed as dissociation constant by isothermal titration calorimetry
[6] = molecular target: Protein cereblon/E3 ubiquitin-protein ligase RING1 (Homo sapiens) (UniProt Q96SW2+Q06587); assay: PROTAC activity at CRBN/RING1A in human K562 cells assessed as degradation of RING1A protein expression at 1 to 10 uM incubated for 24 hrs by Western blotting analysis; format: cell-based; conditions: dose 1-10 µM
[7] = molecular target: T1, Protein cereblon/Polycomb complex protein BMI-1; assay: PROTAC activity at […] in human K562 cells assessed as degradation of BMI1 protein expression at 10 uM incubated for 20 hrs in presence of MLN4924 by Western blotting analysis; format: cell-based
Target sequence in this assay (P35226 whole entry, looked up): as the sequence (P35226 whole entry, looked up) above
Target sequence in this assay (Q96SW2 whole entry, looked up): as the sequence (Q96SW2 whole entry, looked up) above

[8] = molecular target: T1, Protein cereblon/Polycomb complex protein BMI-1; assay: PROTAC activity at […] in human K562 cells assessed as degradation of BMI1 protein expression at 10 uM incubated for 20 hrs in presence of MG132 by Western blotting analysis; format: cell-based
Target sequence in this assay (P35226 whole entry, looked up): as the sequence (P35226 whole entry, looked up) above
Target sequence in this assay (Q96SW2 whole entry, looked up): as the sequence (Q96SW2 whole entry, looked up) above

[9] = molecular target: T2, Protein cereblon/E3 ubiquitin-protein ligase RING2; assay: PROTAC activity at CRBN/RING1B in human K562 cells assessed as degradation of RING1B protein expression at 10 uM incubated for 20 hrs in presence of EED226 by Western blotting analysis; format: cell-based
[10] = molecular target: T2, Protein cereblon/E3 ubiquitin-protein ligase RING2; assay: PROTAC activity at CRBN/RING1B in human K562 cells assessed as degradation of RING1B protein expression at 10 uM incubated for 20 hrs in presence of pomalidomide by Western blotting analysis; format: cell-based
[11] = molecular target: T2, Protein cereblon/E3 ubiquitin-protein ligase RING2; assay: PROTAC activity at CRBN/RING1B in human K562 cells assessed as degradation of RING1B protein expression at 10 uM incubated for 20 hrs in presence of MLN4924 by Western blotting analysis; format: cell-based
[12] = molecular target: T2, Protein cereblon/E3 ubiquitin-protein ligase RING2; assay: PROTAC activity at CRBN/RING1B in human K562 cells assessed as degradation of RING1B protein expression at 10 uM incubated for 20 hrs in presence of MG132 by Western blotting analysis; format: cell-based
[13] = molecular target: Cereblon/Ikaros (Homo sapiens) (UniProt Q96SW2+Q13422); assay: PROTAC activity at CRBN/IKZF1 in human K562 cells assessed as degradation of IKZF1 protein at 0.1 to 10 uM incubated for 4 hrs by Western blotting analysis; format: cell-based; conditions: dose 0.1-10 µM
[14] = molecular target: Protein cereblon/Zinc finger protein Aiolos (Homo sapiens) (UniProt Q96SW2+Q9UKT9); assay: PROTAC activity at CRBN/IKZF3 in human K562 cells assessed as degradation of IKZF3 protein at 0.1 to 10 uM incubated for 4 hrs by Western blotting analysis; format: cell-based; conditions: dose 0.1-10 µM
[15] = molecular target: Protein cereblon/Eukaryotic peptide chain release factor GTP-binding subunit ERF3A (Homo sapiens) (UniProt Q96SW2+P15170); assay: PROTAC activity at CRBN/GSPT1 in human K562 cells assessed as degradation of GSPT1 protein at 0.1 to 10 uM incubated for 4 hrs by Western blotting analysis; format: cell-based; conditions: dose 0.1-10 µM
K562 = assay: Antiproliferative activity against human K562 cells assessed as cell growth inhibition incubated for 7 days by WST-8 assay; format: functional; conditions: K562, 168 h, time 7 day
786-0 [16] = assay: Induction of PRC1 degradation in human 786-0 cells with defective VHL assessed as reduction of H2AK119ub chromatin mark at 10 uM incubated for 24 hrs by Western blotting analysis; format: cell-based
786-0 [17] = assay: Antiproliferative activity against human 786-0 cells assessed as inhibition of cell growth at 30 uM incubated for 7 days by WST-8 assay; format: functional, cell-based; conditions: time 7.0 day
[18] = molecular target: T3, Protein cereblon/Histone-lysine N-methyltransferase EZH2 (Homo sapiens) (UniProt Q15910+Q96SW2); assay: PROTAC activity at CRBN/EZH2 in human PC-3M cells assessed as degradation of EZH2 protein expression at 0.2 to 5 uM incubated for 24 hrs by Western blotting analysis; format: cell-based; conditions: dose 0.2-5 µM
[19] = molecular target: T2, Protein cereblon/E3 ubiquitin-protein ligase RING2; assay: PROTAC activity at CRBN/RING1B in human PC-3M cells assessed as degradation of RING1B protein expression at 5 uM incubated for 24 hrs by Western blotting analysis; format: cell-based
PC-3M [20] = assay: Induction of PRC2 degradation in human PC-3M cells assessed as reduction of H3K27me3 chromatin mark at 5 uM incubated for 24 hrs by Western blotting analysis; format: cell-based
PC-3M [21] = assay: Induction of PRC1 degradation in human PC-3M cells assessed as reduction of H2AK119ub chromatin mark at 1 uM incubated for 24 hrs by Western blotting analysis; format: cell-based
PC-3M [22] = assay: Induction of PRC1 degradation in human PC-3M cells assessed as reduction of H2AK119ub chromatin mark at 5 uM incubated for 24 hrs by Western blotting analysis; format: cell-based
[23] = molecular target: T2, Protein cereblon/E3 ubiquitin-protein ligase RING2; assay: PROTAC activity at CRBN/RING1B in human MDA-MB-468 cells assessed as degradation of RING1B protein expression at 5 uM incubated for 24 hrs by Western blotting analysis; format: cell-based
[24] = molecular target: T3, Protein cereblon/Histone-lysine N-methyltransferase EZH2 (Homo sapiens); assay: PROTAC activity at CRBN/EZH2 in human MDA-MB-468 cells assessed as degradation of EZH2 protein expression at 5 uM incubated for 24 hrs by Western blotting analysis; format: cell-based
MDA-MB-468 [25] = assay: Induction of PRC2 degradation in human MDA-MB-468 cells assessed as reduction of H3K27me3 chromatin mark at 5 uM incubated for 24 hrs by Western blotting analysis; format: cell-based
MDA-MB-468 [26] = assay: Inhibition of colony formation in human MDA-MB-468 cells at 1 to 10 uM incubated for 14 days by crystal violet staining based assay; format: functional, cell-based; conditions: dose 1-10 µM, time 14.0 day
[27] = Drug concentration in Swiss albino mouse plasma at 50 mg/kg,ip administration measured after 2 hrs by LC-MS/MS analysis; format: ADME, organism-based

T2 sequence (Q96SW2 whole entry, the tested form may be a part): as the sequence (Q96SW2 whole entry, looked up) above
T2 sequence (Q99496 2-336 partner limits assumed): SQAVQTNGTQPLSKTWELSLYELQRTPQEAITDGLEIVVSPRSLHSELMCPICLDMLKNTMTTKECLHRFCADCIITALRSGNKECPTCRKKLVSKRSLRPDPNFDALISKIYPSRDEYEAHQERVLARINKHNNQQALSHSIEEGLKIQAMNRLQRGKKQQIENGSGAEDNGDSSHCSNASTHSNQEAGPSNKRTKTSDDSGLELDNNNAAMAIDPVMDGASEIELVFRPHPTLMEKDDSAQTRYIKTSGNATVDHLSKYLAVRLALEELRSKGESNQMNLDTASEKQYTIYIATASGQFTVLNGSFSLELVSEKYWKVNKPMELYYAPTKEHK
T3 sequence (Q15910 whole entry, looked up): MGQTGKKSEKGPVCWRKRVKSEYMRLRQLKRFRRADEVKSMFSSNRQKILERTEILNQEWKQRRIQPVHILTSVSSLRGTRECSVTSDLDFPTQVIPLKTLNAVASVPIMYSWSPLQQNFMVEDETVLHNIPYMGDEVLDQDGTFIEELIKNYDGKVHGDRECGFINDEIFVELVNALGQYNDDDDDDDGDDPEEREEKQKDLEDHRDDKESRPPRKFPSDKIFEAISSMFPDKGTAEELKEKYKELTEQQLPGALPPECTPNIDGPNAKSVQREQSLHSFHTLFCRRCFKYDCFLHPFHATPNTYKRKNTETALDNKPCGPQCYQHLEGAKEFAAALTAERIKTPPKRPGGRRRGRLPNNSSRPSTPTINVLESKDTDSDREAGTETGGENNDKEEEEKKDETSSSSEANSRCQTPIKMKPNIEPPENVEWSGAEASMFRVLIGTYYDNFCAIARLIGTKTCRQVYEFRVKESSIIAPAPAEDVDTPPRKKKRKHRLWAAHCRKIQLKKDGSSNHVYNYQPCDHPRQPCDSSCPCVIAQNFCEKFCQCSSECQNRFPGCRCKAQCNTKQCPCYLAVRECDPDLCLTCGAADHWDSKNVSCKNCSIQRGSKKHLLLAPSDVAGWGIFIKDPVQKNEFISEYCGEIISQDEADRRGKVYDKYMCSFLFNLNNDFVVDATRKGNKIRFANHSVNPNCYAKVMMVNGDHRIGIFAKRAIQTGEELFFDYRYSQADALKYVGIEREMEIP
T3 sequence (Q96SW2 whole entry, looked up): as the sequence (Q96SW2 whole entry, looked up) above
Chain of Protein cereblon/E3 ubiquitin-protein ligase RING1 (Homo sapiens) (Q06587 whole entry, looked up): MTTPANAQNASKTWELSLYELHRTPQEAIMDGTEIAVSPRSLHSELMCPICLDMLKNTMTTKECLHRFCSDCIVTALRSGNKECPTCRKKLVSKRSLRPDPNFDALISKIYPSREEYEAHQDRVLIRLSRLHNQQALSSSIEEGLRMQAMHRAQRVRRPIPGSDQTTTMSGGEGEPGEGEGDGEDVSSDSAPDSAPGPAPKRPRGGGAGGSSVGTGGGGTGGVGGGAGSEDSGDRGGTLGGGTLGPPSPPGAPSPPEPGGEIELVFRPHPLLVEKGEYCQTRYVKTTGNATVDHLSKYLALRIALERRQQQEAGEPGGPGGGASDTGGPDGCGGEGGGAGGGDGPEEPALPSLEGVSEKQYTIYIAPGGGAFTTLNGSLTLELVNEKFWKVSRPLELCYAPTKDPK
Chain of Protein cereblon/E3 ubiquitin-protein ligase RING1 (Homo sapiens) (Q96SW2 whole entry, looked up): as the sequence (Q96SW2 whole entry, looked up) above
Chain of Protein cereblon/Polycomb protein SUZ12 (Homo sapiens) (Q15022 whole entry, looked up): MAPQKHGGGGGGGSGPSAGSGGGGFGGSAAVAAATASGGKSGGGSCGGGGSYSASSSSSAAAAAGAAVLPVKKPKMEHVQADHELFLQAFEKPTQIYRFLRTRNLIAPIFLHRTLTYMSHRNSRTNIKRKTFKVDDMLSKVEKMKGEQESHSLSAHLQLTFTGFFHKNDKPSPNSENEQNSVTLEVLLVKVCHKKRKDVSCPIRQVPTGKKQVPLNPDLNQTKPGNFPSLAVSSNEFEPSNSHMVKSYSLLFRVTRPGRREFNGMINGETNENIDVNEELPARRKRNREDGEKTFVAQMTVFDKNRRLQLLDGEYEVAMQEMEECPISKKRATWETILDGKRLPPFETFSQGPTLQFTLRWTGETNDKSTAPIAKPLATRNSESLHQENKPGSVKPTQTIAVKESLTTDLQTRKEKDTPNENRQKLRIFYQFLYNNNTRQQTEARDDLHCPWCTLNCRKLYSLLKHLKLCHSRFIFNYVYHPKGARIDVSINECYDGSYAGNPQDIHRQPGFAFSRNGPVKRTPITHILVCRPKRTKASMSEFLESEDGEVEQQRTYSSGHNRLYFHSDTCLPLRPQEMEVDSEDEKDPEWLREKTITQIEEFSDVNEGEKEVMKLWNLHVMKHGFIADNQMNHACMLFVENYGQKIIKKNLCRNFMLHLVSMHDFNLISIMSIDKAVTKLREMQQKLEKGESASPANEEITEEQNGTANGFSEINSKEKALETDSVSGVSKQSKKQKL
Chain of Protein cereblon/Polycomb protein SUZ12 (Homo sapiens) (Q96SW2 whole entry, looked up): as the sequence (Q96SW2 whole entry, looked up) above

## O=C(CNc1cccc2c1C(=O)N(C1CCC(=O)NC1=O)C2=O)NCCCCN1CCN(c2ccc(-c3cnc(NCc4ccco4)n4cnnc34)cc2)CC1 (centres undefined)
[1]
  DC50: 1700 nM
[2]
  DC50: 3300 nM
[3]
  Activity: Active
[4]
  Activity: 100%
[5]
  Activity: 100%
Polycomb protein EED
  Kd: 190 nM
[6]
  Activity: Active
[7]
  Activity: inactive
[8]
  Activity: inactive
[9]
  Activity: inactive
[10]
  Activity: inactive
[11]
  Activity: inactive
[12]
  Activity: inactive
[13]
  Activity: inactive
[14]
  Activity: inactive
[15]
  Activity: inactive
K562
  GI50: 3700 nM
786-0 [16]
  Activity: Active
786-0 [17]
  Activity: Active
[18]
  Activity: inactive
[19]
  Activity: Active
PC-3M [20]
  Activity: inactive
PC-3M [21]
  Activity: Active
PC-3M [22]
  Activity: Active
[23]
  Activity: Active
[24]
  Activity: inactive
MDA-MB-468 [25]
  Activity: inactive
MDA-MB-468 [26]
  inhibition: Active
[27]
  concentration at 2 h: > 1000 nM
